# Legend:
# [1] = tested on: Caco-2 human adenocarcinoma cells; test: Absorption of reduced or oxidised vitamin K2-(MK7) on cell monolayer of Caco-2 cells in vitro; format: in vitro ADME; details: for amount of vitamin internalized by the cell layer (μg of vitamin per g of homogenate): 100 μM vitamin applied to apical compartment, 1% ethanol
# Method: Caco-2 human adenocarcinoma cells were cultured on a permeable insert inserted in the well of a microplate to form a confluent monolayer with the barrier function between an apical and a basolateral compartment. The perfect integrity of the monolayer was determined by testing for the absence of passage by lucifer yellow, a compound with low permeability. Samples of vitamin K2-(MK7), alternatively in the reduced form (menaquinol) or the oxidized form (menaquinone), were dissolved in ethanol and applied to the apical compartment, the 1% ethanol solution being added to the incubation buffer. The final solution in the incubation well was fixed at 100 μM of vitamin.
# At the end of the incubation period the cell layer was removed from the insert and homogenized, and the homogenate was centrifuged. The amount of vitamin present in the supernatant was determined by HPLC. The centrifugation pellet was then resuspended in 1 ml of water, and 1.5 ml of isopropanol and 2.5 ml of hexane were added to the suspension. After stirring, the organic phase formed was analyzed, again by HPLC, for the concentration of vitamin K2 (MK7). The total of the two values was used to calculate the amount of vitamin internalized by the cell layer.
# [2] = Stability tests of solid forms of reduced vitamin K2-(MK7) (oxidation of the reduced form over storage time); format: physicochemical; details: for Reduced (t/t0 %): percentage of the initial value of the reduced form; for percentage of the initial value of the reduced form: packaging Alu/vacuum
smiles,measurement,setting,value
"CC(C)=CCC/C(C)=C/CC/C(C)=C/CC/C(C)=C/CC/C(C)=C/CC/C(C)=C/CC/C(C)=C/CC1=C(C)C(=O)c2ccccc2C1=O [Oxidised vitamin, menaquinone 7, reference compound]",amount of vitamin internalized by the cell layer (μg of vitamin per g of homogenate),[1]; mean of wells 1-4,0.6 μg/g hom.
same,amount of vitamin internalized by the cell layer (μg of vitamin per g of homogenate),[1]; well 1,0.4 μg/g hom.
same,amount of vitamin internalized by the cell layer (μg of vitamin per g of homogenate),[1]; well 2,0.5 μg/g hom.
same,amount of vitamin internalized by the cell layer (μg of vitamin per g of homogenate),[1]; well 3,0.6 μg/g hom.
same,amount of vitamin internalized by the cell layer (μg of vitamin per g of homogenate),[1]; well 4,0.7 μg/g hom.
"CC(C)=CCC/C(C)=C/CC/C(C)=C/CC/C(C)=C/CC/C(C)=C/CC/C(C)=C/CC/C(C)=C/Cc1c(C)c(O)c2ccccc2c1O [Reduced vitamin, menaquinol 7]",amount of vitamin internalized by the cell layer (μg of vitamin per g of homogenate),[1]; mean of wells 1-4,1.1 μg/g hom.
same,uptake by Caco-2 cell layer compared with the oxidized form,"[1]; result in words, 100 μM vitamin",slightly but significantly higher uptake
same,amount of vitamin internalized by the cell layer (μg of vitamin per g of homogenate),[1]; well 1,0.8 μg/g hom.
same,amount of vitamin internalized by the cell layer (μg of vitamin per g of homogenate),[1]; well 2,1.6 μg/g hom.
same,amount of vitamin internalized by the cell layer (μg of vitamin per g of homogenate),[1]; well 3,1.0 μg/g hom.
same,amount of vitamin internalized by the cell layer (μg of vitamin per g of homogenate),[1]; well 4,0.8 μg/g hom.
"CC(C)=CCC/C(C)=C/CC/C(C)=C/CC/C(C)=C/CC/C(C)=C/CC/C(C)=C/CC/C(C)=C/Cc1c(C)c(O)c2ccccc2c1O [menaquinol 7, reference compound]",Reduced (t/t0 %),[2]; Time 0 days,100%
same,Reduced (t/t0 %),[2]; Time 3 days,4%
CC(C)=CCC/C(C)=C/CC/C(C)=C/CC/C(C)=C/CC/C(C)=C/CC/C(C)=C/CC/C(C)=C/Cc1c(C)c(O)c2ccccc2c1O [menaquinol 7],percentage of the initial value of the reduced form,[2]; T = 0,100%
same,percentage of the initial value of the reduced form,[2]; T = 1 month,95.4%
same,percentage of the initial value of the reduced form,[2]; T = 2 months,98.9%
same,percentage of the initial value of the reduced form,[2]; T = 3 months,97.9%
same,% vitamin oxidised,[2]; Time 0 days,18.41%
same,% vitamin reduced,[2]; Time 0 days,81.58%
same,% vitamin oxidised,[2]; Time 3 days,23.67%
same,% vitamin reduced,[2]; Time 3 days,76.24%
same,% vitamin oxidised,[2]; Time 6 days,36.69%
same,% vitamin reduced,[2]; Time 6 days,63.16%
same,% vitamin oxidised,[2]; Time 10 days,51.48%
same,% vitamin reduced,[2]; Time 10 days,48.27%
same,% vitamin oxidised,[2]; Time 11 days,52.67%
same,% vitamin reduced,[2]; Time 11 days,47.04%
same,% vitamin oxidised,[2]; Time 12 days,61.09%
same,% vitamin reduced,[2]; Time 12 days,38.44%

# Source: US10563270B2, “Solid forms of menaquinols” (Gnosis S.p.A., priority 2015, dated 2020)
